From ChEMBL document CHEMBL1201862, “PubChem BioAssay data set” (2004)
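Compound exposure: 48 hours, 5 concentrations, 96-well plates. Abbreviation: GI50, concentration required for 50% inhibition of growth.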 The source made the active and inactive calls. Rule as the data show it: active = GI50 up to about 1.1 µM and inactive = higher.

Columns and labels:
Experiment in all cases: DTP human tumour cell line panel, 48 h
LOX IMVI = tested on: LOX IMVI
K562 = tested on: K562
SR = tested on: SR
ACHN = tested on: ACHN
NCI-H23 = tested on: NCI-H23
KM12 = tested on: KM12
MDA-N = tested on: MDA-N
SK-MEL-28 = tested on: SK-MEL-28
MDA-MB-231 = tested on: MDA-MB-231
IGROV-1 = tested on: IGROV-1
HT-29 = tested on: HT-29
TK-10 = tested on: TK-10
NCI-H522 = tested on: NCI-H522
A498 = tested on: A498
RXF 393 = tested on: RXF 393
UO-31 = tested on: UO-31
MOLT-4 = tested on: MOLT-4
DU-145 = tested on: DU-145
HOP-92 = tested on: HOP-92
RPMI-8226 = tested on: RPMI-8226

| Compound | GI50 (LOX IMVI) | GI50 (K562) | GI50 (SR) | GI50 (ACHN) | GI50 (NCI-H23) | GI50 (KM12) | GI50 (MDA-N) | GI50 (SK-MEL-28) | GI50 (MDA-MB-231) | GI50 (IGROV-1) | GI50 (HT-29) | GI50 (TK-10) | GI50 (NCI-H522) | GI50 (A498) | GI50 (RXF 393) | GI50 (UO-31) | GI50 (MOLT-4) | GI50 (DU-145) | GI50 (HOP-92) | GI50 (RPMI-8226) |
| --- | --- | --- | --- | --- | --- | --- | --- | --- | --- | --- | --- | --- | --- | --- | --- | --- | --- | --- | --- | --- |
| O=C(O)C(F)(OC(F)(F)C(F)(OC(F)(F)C(F)(F)C(F)(F)F)C(F)(F)F)C(F)(F)F (stereo not given) | > 100 µM (inactive) | > 100 µM (inactive) | > 100 µM (inactive) | > 100 µM (inactive) | > 100 µM (inactive) | > 100 µM (inactive) | > 100 µM (inactive) | > 100 µM (inactive) | > 100 µM (inactive) | > 100 µM (inactive) | > 100 µM (inactive) | > 100 µM (inactive) | > 100 µM (inactive) | > 100 µM (inactive) | > 100 µM (inactive) | > 100 µM (inactive) | > 100 µM (inactive) | > 100 µM (inactive) | 63.7 µM (inactive) | > 100 µM (inactive) |
| COC(=O)C1(Cc2ccccc2)Cc2c(C)ccc(C)c2C1=O (stereo not given) | 17.2 µM (inactive) | 30.5 µM (inactive) | 23.9 µM (inactive) | 26.9 µM (inactive) | 24.2 µM (inactive) | 13.8 µM (inactive) | 37.1 µM (inactive) | 42.5 µM (inactive) | 15.7 µM (inactive) | 36.7 µM (inactive) | 19.8 µM (inactive) | 49 µM (inactive) | 19.2 µM (inactive) | 46.8 µM (inactive) | 21.8 µM (inactive) | 10.8 µM (inactive) | 18.7 µM (inactive) | 49.2 µM (inactive) | 20.1 µM (inactive) | 29 µM (inactive) |
| COc1cc(C[S+]([O-])c2ccc(O)cc2)cc(OC)c1OC (stereo not given) | > 100 µM (inactive) | > 100 µM (inactive) | > 100 µM (inactive) | > 100 µM (inactive) | > 100 µM (inactive) | > 100 µM (inactive) | > 100 µM (inactive) | > 100 µM (inactive) | > 100 µM (inactive) | > 100 µM (inactive) | > 100 µM (inactive) | > 100 µM (inactive) | > 100 µM (inactive) | > 100 µM (inactive) | > 100 µM (inactive) | 66.2 µM (inactive) | > 100 µM (inactive) | > 100 µM (inactive) | > 100 µM (inactive) | > 100 µM (inactive) |
| O=C1c2cc(CCl)sc2C(=O)c2ccsc21 | < 0.0248 µM (active) | 0.158 µM (active) | 0.142 µM (active) | 0.327 µM (active) | 0.0618 µM (active) | 1.62 µM (inactive) | 0.0183 µM (active) | 0.0634 µM (active) | 0.232 µM (active) | 1.49 µM (inactive) | 1.16 µM (inactive) | 1.95 µM (inactive) | 0.422 µM (active) | 1.63 µM (inactive) | 0.231 µM (active) | 0.301 µM (active) | 0.179 µM (active) | 0.191 µM (active) | 0.427 µM (active) | 0.184 µM (active) |
| CN(C)c1ccc(C=c2c3cc(O)ccc3n3c2cc(-c2ccccc2)[n+]3C)cc1 | 1.18 µM (inactive) | 0.428 µM (active) | 0.568 µM (active) | 7.78 µM (inactive) | 1.08 µM (active) | 1.06 µM (active) | 0.67 µM (active) | 1.06 µM (active) | 1.04 µM (active) | 0.281 µM (active) | 1.69 µM (inactive) | 3.72 µM (inactive) | 0.337 µM (active) | 4.47 µM (inactive) | 1.53 µM (inactive) | 2.93 µM (inactive) | 3.27 µM (inactive) | 1.92 µM (inactive) | 1.13 µM (inactive) | 0.282 µM (active) |
| CC(=O)[C@@]1(O)CC[C@H]2[C@@H]3C[C@H](C)C4=CC(=O)CC[C@]4(C)[C@H]3[C@@H](O)C[C@@]21C | > 100 µM (inactive) | > 100 µM (inactive) | > 100 µM (inactive) | > 100 µM (inactive) | > 100 µM (inactive) | > 100 µM (inactive) | > 100 µM (inactive) | > 100 µM (inactive) | > 100 µM (inactive) | > 100 µM (inactive) | > 100 µM (inactive) | > 100 µM (inactive) | 73.6 µM (inactive) | > 100 µM (inactive) | > 100 µM (inactive) | > 100 µM (inactive) | 46 µM (inactive) | > 100 µM (inactive) | > 100 µM (inactive) | < 0.01 µM (active) |
